Test results: patent US11076595B2, “1-(n,n-disubstituted carbamoyl) 4-(substituted sulfonyl)triazolin-5-one derivative, 4-(n,n-disubstituted carbamoyl) 1-(substituted sulfonyl)triazolin-5-one derivative, and herbicide containing said derivative as active ingredient” (HOKKO CHEMICAL INDUSTRY CO., LTD., priority 2017, dated 2021)

Key:
Assay type in all cases: in vivo
[1] = system: Echinochloa crus-galli; assay: Test Example 11: herbicidal effect test by soil treatment in paddy field; details: 120 g/10a active ingredient, 14 days after treatment
Procedure, shortened: (§1)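 Weed suppression rate (%) was calculated as (1 − mean treated dry weight / mean untreated dry weight) × 100 at 14 days after treatment, two replicates per plot. Seeds were sown at 0–1 cm in flooded (about 3 cm) puddled paddy soil and treated immediately at 120 g active ingredient per 10 are.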

[2] = system: Lindernia pyxidaria; assay: as above; details: 120 g/10a active ingredient, 14 days after treatment
Procedure, shortened: as §1

[3] = system: Monochoria vaginalis; assay: as above; details: 120 g/10a active ingredient, 14 days after treatment
Procedure, shortened: as §1

[4] = system: Scirpus juncoides; assay: as above; details: 120 g/10a active ingredient, 14 days after treatment
Procedure, shortened: as §1

[5] = system: Echinochloa crus-galli; assay: Test Example 12: herbicidal effect test by treatment during growing period in paddy field; details: 120 g/10a; treatment seven days after sowing in flooded paddy pot; assessed 14 days after treatment
Procedure, shortened: (§2)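 Puddled paddy soil in Wagner pots, 30 seeds per species sown 0-1 cm deep, flooded to about 3 cm in a greenhouse. Seven days after sowing, water-diluted emulsifiable concentrate was dripped in at 120 g active ingredient per 10 are. Suppression (%) from dry weight versus untreated at 14 days, two replicates.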

[6] = system: Lindernia pyxidaria; assay: as above; details: 120 g/10a; treatment seven days after sowing in flooded paddy pot; assessed 14 days after treatment
Procedure, shortened: as §2

[7] = system: Monochoria vaginalis; assay: as above; details: 120 g/10a; treatment seven days after sowing in flooded paddy pot; assessed 14 days after treatment
Procedure, shortened: as §2

[8] = system: Scirpus juncoides; assay: as above; details: 120 g/10a; treatment seven days after sowing in flooded paddy pot; assessed 14 days after treatment
Procedure, shortened: as §2

Structure (SMILES) | Weed suppression rate (%) Echinochloa crus-galli [1] | Weed suppression rate (%) Lindemia pyxidaria [2] | Weed suppression rate (%) Monochoria vaginalis [3] | Weed suppression rate (%) Scirpus juncoides [4] | Weed suppression rate (%) Echinochloa crus-galli [5] | Weed suppression rate (%) Lindemia pyxidaria [6] | Weed suppression rate (%) Monochoria vaginalis [7] | Weed suppression rate (%) Scirpus juncoides [8]
Cc1cc(N(C(=O)n2cnn(S(=O)(=O)C(C)C)c2=O)C(C)C)no1 [Compound 11-91] | 90% | 80% | 80% | 90% | 90% | 80% | 80% | 90%
CC(C)N(C(=O)n1cnn(S(=O)(=O)c2cccs2)c1=O)c1ccc(C(F)(F)F)cc1Cl [Compound 11-1042] | 90% | 80% | 80% | 90% | 90% | 80% | 80% | 90%
CC(C)N(C(=O)n1cnn(S(=O)(=O)c2ccccc2Cl)c1=O)c1ccccc1F [Compound 11-502] | 90% | 80% | 80% | 90% | 90% | 80% | 80% | 90%
Cc1ccc(S(=O)(=O)n2ncn(C(=O)N(c3ccc(C)cc3F)C(C)C)c2=O)cc1 [Compound 11-651] | 90% | 90% | 90% | 90% | 90% | 80% | 80% | 90%
Cc1cc(C)c(S(=O)(=O)n2ncn(C(=O)N(C)c3ccc(F)cc3F)c2=O)c(C)c1 [Compound 11-1140] | 100% | 100% | 90% | 100% | 100% | 80% | 90% | 100%
COc1ccc(S(=O)(=O)n2ncn(C(=O)N(c3c(F)cccc3F)C(C)C)c2=O)cc1 [Compound 11-1151] | 100% | 100% | 70% | 80% | 100% | 80% | 90% | 90%
CC(C)N(C(=O)n1cnn(S(=O)(=O)C2CCCCC2)c1=O)c1ccc(C#N)cc1Cl [Compound 11-316] | 90% | 80% | 80% | 90% | 90% | 80% | 80% | 90%
CC(C)N(C(=O)n1cnn(S(=O)(=O)c2ccc(F)cc2)c1=O)c1ccccc1F [Compound 11-465] | 90% | 80% | 80% | 90% | 90% | 80% | 80% | 90%
Cc1ccc(N(C(=O)n2cnn(S(=O)(=O)c3c(F)c(F)c(F)c(F)c3F)c2=O)C(C)C)c(F)c1 [Compound 11-825] | 90% | 80% | 80% | 90% | 90% | 80% | 80% | 90%
CC(C)N(C(=O)n1cnn(S(=O)(=O)c2ccc(C(C)(C)C)cc2)c1=O)c1ccc(F)c(F)c1F [Compound 11-685] | 90% | 100% | 100% | 60% | 80% | 60% | 70% | 60%
CC(C)N(C(=O)n1cnn(S(=O)(=O)c2cccc(F)c2)c1=O)c1cccc(F)c1F [Compound 11-437] | 100% | 80% | 80% | 80% | 100% | 100% | 100% | 100%
CC(C)N(C(=O)n1cnn(S(=O)(=O)c2ccc(F)cc2)c1=O)c1c(F)cc(F)cc1F [Compound 11-479] | 100% | 100% | 80% | 100% | 100% | 70% | 80% | 80%
CC(C)N(C(=O)n1cnn(S(=O)(=O)c2ccccc2F)c1=O)c1c(F)cccc1F [Compound 11-404] | 100% | 30% | 60% | 30% | 100% | 70% | 70% | 70%
Cc1ccc(N(C(=O)n2cnn(S(=O)(=O)c3ccc(C(C)(C)C)cc3)c2=O)C(C)C)c(F)c1 [Compound 11-696] | 90% | 80% | 80% | 90% | 90% | 80% | 80% | 90%
Cc1cc(F)ccc1N(C(=O)n1cnn(S(=O)(=O)c2ccc(Cl)cc2)c1=O)C(C)C [Compound 11-601] | 70% | 80% | 80% | 60% | 60% | 70% | 70% | 60%
CC(C)N(C(=O)n1cnn(S(=O)(=O)c2cccc(Cl)c2)c1=O)c1c(F)cc(F)cc1F [Compound 11-554] | 100% | 90% | 70% | 70% | 80% | 80% | 80% | 90%
CC(C)N(C(=O)n1cnn(S(C)(=O)=O)c1=O)c1cccc(F)c1 [Compound 11-3] | 90% | 80% | 80% | 90% | 90% | 80% | 80% | 90%
Cc1ccc(S(=O)(=O)n2ncn(C(=O)N(c3ccc(Cl)cc3F)C(C)C)c2=O)cc1 [Compound 11-645] | 100% | 90% | 90% | 90% | 60% | 90% | 90% | 60%
CC(C)S(=O)(=O)n1ncn(C(=O)N(C)c2ccc(F)cc2F)c1=O [Compound 11-1127] | 100% | 80% | 70% | 80% | 100% | 70% | 70% | 100%
CC(C)N(C(=O)n1cnn(S(=O)(=O)c2ccc(F)cc2)c1=O)c1ccc(Br)cc1Cl [Compound 11-486] | 90% | 90% | 80% | 80% | 60% | 70% | 70% | 60%
